The test system of experiment [1] is E. coli. As to the kind of experiment: NPN fluorescence, penetration into outer membrane. Conditions: FIG. 5. Format: cell-based. On the procedure:
Penetration into the microbial outer membrane was measured by the fluorescence intensity of NPN-treated E. coli (λex=355 nm, λem=405 nm). An E. coli suspension (8×10^7 cells/mL) was centrifuged at 13000 rpm at 25° C. for 10 minutes, and suspended in 5 mM HEPES buffer (pH 7.2). NPN was added to the E. coli suspension to a final NPN concentration of 5 μM. The fluorescence intensity of the E. coli suspension was measured using the FL-55 fluorometer. The peptide together with 5 μM NPN was added to the E. coli suspension.

For experiment [2], the system named is E. coli. Put plainly: SYTOX Green membrane penetrability by FACS. Format: cell-based. Conditions: FIG. 6. On the procedure: In the second experiment, whether the peptides would have the ability to disrupt both the outer wall and inner wall of bacteria was examined. To this end, the fluorescent dye Sytox Green capable of specifically staining DNA was used, and penetrability into the microbial membrane was evaluated from the average fluorescence intensity of E. coli treated with SYTOX Green. An E. coli suspension (2×10^8 cells/mL) was incubated with the three peptides in the presence of SYTOX Green (2.5 μM) for 10 minutes, respectively. Penetrability was quantified by a (fluorescence activated cell sorter (FACS). The average fluorescence intensity of 1×10^4 gate cells was measured. Melittin (control) is a pore-forming peptide that disrupts the microbial cell membrane.
For orientation: Flow cytometry measures light scatter and fluorescence of single cells or particles in a stream.

Experiment [3] relates to Escherichia coli (ATCC 25922). Conditions: peptide alone; peptide concentration required to inhibit growth by 20% (so in the source). On the procedure:
(§1) The N-terminus of the peptides were acetylated and the C-terminus was amidated. The kinked structure can rapidly reduce the alpha-helical content, thereby greatly reducing the toxicity of the peptide against host cells. In addition, because of the potential to show specificity for the Gram-negative bacterial membrane, Pro-mutants were prepared by site-directed mutagenesis. Using the prepared peptides, their MIC for the Gram-negative bacterium E. coli and the Gram-positive bacterium S. aureus and their hemolytic activity for host cells were examined (Table 1).
(§2) To measure the synergy between the membrane-activating peptides and the repositioning drug, a 10× compound was prepared, and then serially diluted ⅔-fold with distilled water. An MH broth (900 μl) was added to and mixed with the 10× compound (100 μl), and then 200 μL of the mixture was taken and added to a 96-well plate. E. coli cultured for one day was adjusted to 0.5 MCF using MCFarland, and diluted 10-fold, and then 10 μl of the dilution was added to each well of the plate (5×10^5 CFU/mL). After addition of the bacterial cells, plate was incubated at 37° C. for 18 hours, and then the OD value at UV-Vis (600 nm) was measured. Cell viability (%)=(OD600 of sample−OD600 of negative control)/(OD600 of positive control−OD600 of negative control)×100.

In experiment [4] the test system is Staphylococcus aureus (ATCC 29213). Put plainly: MIC of peptide against S. aureus. Format: cell-based. The settings on record: peptide alone. The protocol: as §1
For experiment [5], the system named is E. coli ATCC 25922. As to the kind of experiment: Antibiotic interaction assay (Wimley), 2/3 broth microdilution: MIC alone, MIC of combination, FICI. Format: cell-based. On the procedure:
Synergy was evaluated by an antibiotic interaction assay (Wimley, 2015) Using the method of Wimley (BBA, 2015, v. 1848(1), pp. 8-15), synergy between the membrane-activating peptide and an antibiotic was measured by an FICI value (FIG. 17). […] Thus, to accurately examine synergy, a ⅔ dilution method which observes MIC at denser concentration intervals is advantageous over a ½ dilution method in statistical terms. […] In the same manner, the MIC of an antibiotic or repositioning drug (second line) is measured. In the third line, the two compounds are mixed after putting half amount each, and the MIC thereof is measured.
A broth microdilution technique (⅔ dilution) was used together with an MH broth. E. coli treated with an antibiotic and the peptide was incubated in a 37° C. incubator for 18 hours.
as §2
On the technique in general: In broth dilution the organism is exposed to a series of concentrations in liquid medium.

In a further experiment the test system is E. coli NDm-1. As to the kind of experiment: Confocal microscopy of TAMRA-conjugated peptide. The format is cell-based. Conditions: 2.5 μM peptide, 30 minutes, FIG. 8. The protocol: E. coli NDm-1 was diluted when it reached OD600=0.5. The microorganism was treated with 2.5 μM of the peptide in a 37° C. incubator for 30 minutes. LK-L12P was used as a positive control.

In experiment [6] the test system is E. coli ATCC 25922. Conditions: for MIC (μM) against E. coli ATCC 25922, Peptide alone: bacterial growth <10% of control.

Here are results for three compounds from US20180339016A1 (priority 2015, published 2018).

“And” between values parts separate entries of the source, which are not always exact repeats. Equal entries are not always repeated. Where two headings read alike, the source gives them in different places.

The MIC is the least concentration at which growth counts as inhibited.

`CC[C@H](C)[C@H](NC(=O)CN)C(=O)NCC(=O)N[C@@H](C)C(=O)N[C@H](C(=O)N[C@@H](CC(C)C)C(=O)N[C@@H](CCCCN)C(=O)N[C@H](C(=O)N[C@@H](CC(C)C)C(=O)N[C@H](C(=O)N[C@H](C(=O)NCC(=O)N[C@@H](CC(C)C)C(=O)N1CCC[C@H]1C(=O)N[C@@H](C)C(=O)N[C@@H](CC(C)C)C(=O)N[C@H](C(=O)N[C@@H](CO)C(=O)N[C@@H](Cc1c[nH]c2ccccc12)C(=O)N[C@H](C(=O)N[C@@H](CCCCN)C(=O)N[C@@H](CCCNC(=N)N)C(=O)N[C@@H](CCCCN)C(=O)N[C@@H](CCCNC(=N)N)C(=O)N[C@@H](CCC(N)=O)C(=O)N[C@@H](CCC(N)=O)C(N)=O)[C@@H](C)CC)[C@@H](C)CC)[C@@H](C)O)[C@@H](C)O)C(C)C)C(C)C` [Melittin]: in the experiment with E. coli [1], the “NPN fluorescence: touching/loosening the outer membrane” value is listed as “high ability to increase NPN fluorescence”. Also, the “SYTOX Green DNA staining: ability to degrade or penetrate the inner wall” value in the experiment on E. coli [2] was “have this ability”.

For KLLKLLKKPLKLLK [KL-L9P], the “MIC [μM] Against E. coli” value in experiment [3] is 20 µM and 12 µM. The “MIC [μM] Against S. aureus” value in experiment [4] was greater than 40 µM. Moreover, the “lowering of MIC in combination KL-L9P/colistin/linezolid versus alone” value in the experiment with E. coli ATCC 25922 [5] worked out at 12 fold. Further, the “MIC when the three compounds were used alone” value in the experiment with E. coli ATCC 25922 [5] (Example 7) came to 13 µM. Further, the “FICI of peptide with resveratrol” value in the experiment with E. coli ATCC 25922 [5] (FIG. 10) came out at 0.2. Also, the “MIC (μM) against E. coli ATCC, combination of two compounds” value in the experiment with E. coli ATCC 25922 [5] (KL-L9P + (S)-ibuprofen, concentration of labelled component) was determined as 2.0 µM; with E. coli ATCC 25922 [5] (KL-L9P + cloxacillin, concentration of labelled component), 3.0 µM; in the experiment with E. coli ATCC 25922 [5] (KL-L9P + colistin, concentration of labelled component) it was 2.4 µM; in the experiment on E. coli ATCC 25922 [5] (KL-L9P + curcumin, concentration of labelled component), 1.9 µM; with E. coli ATCC 25922 [5] (KL-L9P + linezolid, concentration of labelled component) it was 2.6 µM; with E. coli ATCC 25922 [5] (KL-L9P + simvastatin, concentration of labelled component), 1.3 µM. In addition, the “MIC (μM) against E. coli ATCC, combination of 3 compounds” value with E. coli ATCC 25922 [5] (KL-L9P + colistin + (S)-ibuprofen, concentration of labelled component) stood at 1.1 µM; with E. coli ATCC 25922 [5] (KL-L9P + colistin + cloxacillin, concentration of labelled component), 1.6 µM; with E. coli ATCC 25922 [5] (KL-L9P + colistin + curcumin, concentration of labelled component), 1.1 µM; in the experiment with E. coli ATCC 25922 [5] (KL-L9P + colistin + linezolid, concentration of labelled component), 1.1 µM; with E. coli ATCC 25922 [5] (KL-L9P + colistin + simvastatin, concentration of labelled component), 0.79 µM. In the experiment with E. coli ATCC 25922 [5] (Tables 19-23, read-out: MIC (μM) against E. coli ATCC, 1 compound alone), the minimum inhibitory concentration (MIC) is reported as 15 µM. For the same compound, the “concentration killing E. coli in combination KL-L9P/colistin/linezolid” value with E. coli ATCC 25922 [5] (concentration of labelled component) stood at 1 µM. Further, the “FICI of peptide with colistin” value in the experiment on E. coli ATCC 25922 [5] (labelled peptide + colistin) is given as 0.26. Besides, the “FICI of peptide with colistin and linezolid” value with E. coli ATCC 25922 [5] (labelled peptide + colistin + linezolid) was found to be 0.28. The “FICI of peptide with linezolid” value in the experiment with E. coli ATCC 25922 [5] (labelled peptide + linezolid) is listed as 0.40. For the same compound, the “FICI of peptide with simvastatin” value with E. coli ATCC 25922 [5] (labelled peptide + simvastatin) was 0.18. Besides, the “MIC of combination (μM): peptide” value in the experiment with E. coli ATCC 25922 [5] (peptide concentration in combination with colistin) was found to be 2.6 µM. Moreover, the “NPN fluorescence: touching/loosening the outer membrane” value with E. coli [1] is listed as “better effect of loosening the outer membrane than colistin”. Also, in the experiment on E. coli [2], the “SYTOX Green DNA staining: ability to degrade or penetrate the inner wall” value was “did not stain DNA”. Further, the “confocal image: membrane leakage / distribution of TAMRA-labeled peptide” value with E. coli NDm-1 is given as “distributed around the thin peri-cytoplasmic membrane”. Also, the “MIC (μM) against E. coli ATCC 25922, Peptide alone” value against E. coli ATCC 25922 [6] (Table 4) worked out at 15 µM. The “FICI Against E. coli, Colistin & 1/2 MIC peptide” value in the experiment with E. coli ATCC 25922 [6] (Table 13, Lys-Ala scanning library) is recorded as 0.58; in the experiment on E. coli ATCC 25922 [6] (Table 15, Leu-Ala scanning), 0.74. Also, the “FICI Against E. coli, Colistin & 1/4 MIC peptide” value in the experiment with E. coli ATCC 25922 [6] (Table 15, Leu-Ala scanning) is on record as 0.55.

In the case of KLLKLPKKLLKLLK [KL-L6P], the “MIC [μM] Against E. coli” value in experiment [3] came out at 10 µM. Also, the “MIC [μM] Against S. aureus” value in experiment [4] is greater than 40 µM. Besides, in the experiment with E. coli ATCC 25922 [6] (Table 4), the “Fractional Inhibitory Concentration Index (FICI), Colistin & 1 μM peptide” value is given as 0.83, Synergism and the “MIC (μM) against E. coli ATCC 25922, Peptide alone” value came out at 3 µM.
